Pest or weed control data for 16 compounds are collected here from patent US10206394B2, “Herbicidal compounds” (Syngenta Participations AG, priority 2014, dated 2019).

Assay in all cases: Glasshouse assay for herbicidal activity (pre- and post-emergence), percentage phytotoxicity
Type in all cases: in vivo

Assay [1] relates to Lolium perenne (LOLPE). The conditions noted are these: Lolium perenne, Rate 250 g/ha, 100%=total damage, 0%=no damage. Put shortly:
(§1)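 Herbicide was applied to potted plants sown in standard soil, one day after sowing for PRE and after about 12 days for POST. Visual percentage damage ratings followed at 15 DAA (POST) and 20 DAA (PRE).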

Assay [2] deals with Avena fatua (AVEFA). Conditions: Avena fatua, Rate 250 g/ha, 100%=total damage, 0%=no damage. Put shortly:
as §1

For assay [3], the system named is Alopecurus myosuroides (ALOMY). Conditions: Alopecurus myosuroides, Rate 250 g/ha, 100%=total damage, 0%=no damage. The method in brief: as §1
The test system of assay [4] is Echinochloa crus-galli (ECHCG). Conditions: Echinochloa crus-galli, Rate 250 g/ha, 100%=total damage, 0%=no damage. The method in brief:
as §1

The mark [5] stands for this setting: post-emergence, 360 h, post-emergence, visual assessment 15 DAA, read-out: Post-emergence herbicidal activity (percentage phytotoxicity) LOLPE POST.
[6] abbreviates: pre-emergence, 480 h, pre-emergence, visual assessment 20 DAA, read-out: Pre-emergence herbicidal activity (percentage phytotoxicity) LOLPE PRE.
Setting [7] is: post-emergence, 360 h, post-emergence, visual assessment 15 DAA, read-out: Post-emergence herbicidal activity (percentage phytotoxicity) AVEFA POST.
The mark [8] stands for this setting: pre-emergence, 480 h, pre-emergence, visual assessment 20 DAA, read-out: Pre-emergence herbicidal activity (percentage phytotoxicity) AVEFA PRE.
Setting [9] is: post-emergence, 360 h, post-emergence, visual assessment 15 DAA, read-out: Post-emergence herbicidal activity (percentage phytotoxicity) ALOMY POST.
Setting [10] is: pre-emergence, 480 h, pre-emergence, visual assessment 20 DAA, read-out: Pre-emergence herbicidal activity (percentage phytotoxicity) ALOMY PRE.
The mark [11] stands for this setting: post-emergence, 360 h, post-emergence, visual assessment 15 DAA, read-out: Post-emergence herbicidal activity (percentage phytotoxicity) ECHCG POST.
Where [12] appears, read: pre-emergence, 480 h, pre-emergence, visual assessment 20 DAA, read-out: Pre-emergence herbicidal activity (percentage phytotoxicity) ECHCG PRE.

Like-named read-outs stand apart in the source and are kept apart here.

Turning to `Cc1cc(-c2ccc(Cl)cn2)cc(C)c1C1C(=O)CC(CC(=O)NC/C=C/Cl)C1=O` (centres unmarked) [Compound B372], the pest or weed control at 250 g/ha was determined as 90% in assay [1] (setting [5]); 100% in assay [1] (setting [6]); 100% in assay [2] (setting [7]); 100% in assay [2] (setting [8]); 90% in assay [3] (setting [9]); 90% in assay [3] (setting [10]). Besides, the pest or weed control at 250 g/ha in assay [4] (setting [11]) and in assay [4] (setting [12]) was 100% throughout.

Take `Cc1cc(-c2ccc(Cl)cn2)cc(C)c1C1C(=O)CC(CC(=O)NCc2cccs2)C1=O` (centres unmarked) [Compound B373]: the pest or weed control at 250 g/ha in assay [1] (setting [5]) was 80%; in assay [1] (setting [6]), 100%; in assay [2] (setting [7]) it was 100%; in assay [2] (setting [8]), 80%; in assay [3] (setting [9]), 80%; in assay [3] (setting [10]), 70%. The pest or weed control at 250 g/ha in assay [4] (setting [11]) and in assay [4] (setting [12]) was 100% throughout.

In the case of `Cc1cc(-c2ccc(Cl)cn2)cc(C)c1C1C(=O)CC(CC(=O)NCc2cccc(Cl)c2)C1=O` (centres unmarked) [Compound B374], the pest or weed control at 250 g/ha in assay [1] (setting [5]) worked out at 90%; in assay [1] (setting [6]), 90%; in assay [2] (setting [7]), 100%; in assay [2] (setting [8]), 90%; in assay [3] (setting [9]), 90%; in assay [3] (setting [10]), 70%. Also, the pest or weed control at 250 g/ha worked out at 100% in assay [4] (setting [11]) and 90% in assay [4] (setting [12]).

Consider `Cc1ccc(CNC(=O)CC2CC(=O)C(c3c(C)cc(-c4ccc(Cl)cn4)cc3C)C2=O)cc1` (centres unmarked) [Compound B375], for which the pest or weed control at 250 g/ha in assay [1] (setting [5]) was 80%; in assay [1] (setting [6]) it was 80%; in assay [2] (setting [7]), 70%; in assay [2] (setting [8]) it was 70%; in assay [3] (setting [9]) it was 40%; in assay [3] (setting [10]), 60%. In addition, the pest or weed control at 250 g/ha in assay [4] (setting [11]) is 100%; in assay [4] (setting [12]), 90%.

With `C=Cc1cc(-c2ccc(Cl)cn2)cc(C)c1C1C(=O)CC(CC(=O)NC(C)(C)C)C1=O` (centres unmarked) [Compound B376], the pest or weed control at 250 g/ha in assay [1] (setting [5]) is 100%; in assay [1] (setting [6]), 60%; in assay [2] (setting [7]) it was 90%; in assay [2] (setting [8]), 80%; in assay [3] (setting [9]) it was 90%; in assay [3] (setting [10]), 30%. For the same compound, the pest or weed control at 250 g/ha in assay [4] (setting [11]) amounted to 100%; in assay [4] (setting [12]), 60%.

With `Cc1cc(-c2ccc(F)cc2)cc(C)c1C1C(=O)CC(CC(=O)NC(C)(C)C#N)C1=O` (centres unmarked) [Compound B377], the pest or weed control at 250 g/ha in assay [1] (setting [5]) was 30%; in assay [1] (setting [6]), 80%; in assay [2] (setting [7]), 100%; in assay [2] (setting [8]), 90%; in assay [3] (setting [9]) it was 90%; in assay [3] (setting [10]), 90%. In addition, the pest or weed control at 250 g/ha amounted to 90% in assay [4] (setting [11]) and 100% in assay [4] (setting [12]).

On to `Cc1cc(-c2ccc(Cl)cc2)cc(C)c1C1C(=O)CC(CC(=O)NC(C)(C)C#N)C1=O` (centres unmarked) [Compound B378], for which the pest or weed control at 250 g/ha came out at 70% in assay [1] (setting [5]); 80% in assay [1] (setting [6]); 100% in assay [2] (setting [7]); 90% in assay [2] (setting [8]); 80% in assay [3] (setting [9]); 70% in assay [3] (setting [10]). In addition, the pest or weed control at 250 g/ha came to 100% in assay [4] (setting [11]) and 90% in assay [4] (setting [12]).

Regarding `CC#Cc1cc(C)c(C2C(=O)CC(CC(=O)NC(C)(C)C#N)C2=O)c(C)c1` (centres unmarked) [Compound B379], the pest or weed control at 250 g/ha was found to be 60% in assay [1] (setting [5]); 70% in assay [1] (setting [6]); 90% in assay [2] (setting [7]); 70% in assay [2] (setting [8]); 90% in assay [3] (setting [9]); 90% in assay [3] (setting [10]). Also, the pest or weed control at 250 g/ha came to 90% in assay [4] (setting [11]) and 70% in assay [4] (setting [12]).

For the compound `COc1ccc(CNC(=O)CC2CC(=O)C(c3c(C)cc(-c4ccc(Cl)cn4)cc3C)C2=O)cc1` (centres unmarked) [Compound B380], the pest or weed control at 250 g/ha in assay [1] (setting [5]) is 90%; in assay [1] (setting [6]), 80%; in assay [2] (setting [7]) it was 90%; in assay [2] (setting [8]), 80%; in assay [3] (setting [9]), 70%; in assay [3] (setting [10]), 70%. The pest or weed control at 250 g/ha was determined as 100% in assay [4] (setting [11]) and 90% in assay [4] (setting [12]).

In the case of `C#Cc1cc(-c2ncc(F)cc2F)cc(C)c1C1C(=O)CC(CC(=O)NC(C)(C)C)C1=O` (centres unmarked) [Compound B381, N-tert-butyl-2-[3-[4-(3,5-difluoro-2-pyridyl)-2-ethynyl-6-methyl-phenyl]-2,4-dioxo-cyclopentyl]acetamide], the pest or weed control at 250 g/ha in assay [1] (setting [5]) was 100%; in assay [1] (setting [6]), 90%; in assay [2] (setting [7]), 100%; in assay [2] (setting [8]) it was 70%; in assay [3] (setting [9]), 100%; in assay [3] (setting [10]), 70%. Besides, the values for the pest or weed control at 250 g/ha in assay [4] (setting [11]) and in assay [4] (setting [12]) were 100% and 70%, respectively.

Consider `C=Cc1cc(-c2ncc(F)cc2F)cc(C)c1C1C(=O)CC(CC(=O)NC(C)(C)C)C1=O` (centres unmarked) [Compound B382, N-tert-butyl-2-[3-[4-(3,5-difluoro-2-pyridyl)-2-methyl-6-vinyl-phenyl]-2,4-dioxo-cyclopentyl]acetamide], for which the pest or weed control at 250 g/ha in assay [1] (setting [5]) worked out at 100%; in assay [1] (setting [6]) it was 60%; in assay [2] (setting [7]), 100%; in assay [2] (setting [8]) it was 40%; in assay [3] (setting [9]), 100%; in assay [3] (setting [10]) it was 60%. Moreover, the pest or weed control at 250 g/ha was 100% in assay [4] (setting [11]) and 60% in assay [4] (setting [12]).

With `Cc1cc(-c2ccc(F)cn2)cc(C)c1C1C(=O)CC(CC(=O)NCc2cccc(F)c2)C1=O` (centres unmarked) [Compound B383], the pest or weed control at 250 g/ha in assay [1] (setting [5]) turned out to be 90%; in assay [1] (setting [6]), 100%; in assay [2] (setting [7]), 100%; in assay [2] (setting [8]), 90%; in assay [3] (setting [9]), 100%; in assay [3] (setting [10]) it was 90%. For the same compound, the pest or weed control at 250 g/ha in assay [4] (setting [11]) came out at 90%; in assay [4] (setting [12]), 100%.

As for `Cc1cc(-c2ccc(F)cn2)cc(C)c1C1C(=O)CC(CC(=O)NCc2cccc(Br)c2)C1=O` (centres unmarked) [Compound B384], the pest or weed control at 250 g/ha was 90% in assay [1] (setting [5]); 80% in assay [1] (setting [6]); 100% in assay [2] (setting [7]); 80% in assay [2] (setting [8]); 90% in assay [3] (setting [9]); 80% in assay [3] (setting [10]). Moreover, the results for the pest or weed control at 250 g/ha in assay [4] (setting [11]) and in assay [4] (setting [12]) were 40% and 90%, respectively.

For the compound `Cc1cc(-c2ccc(F)cn2)cc(C)c1C1C(=O)CC(CC(=O)NC(C)C)C1=O` (centres unmarked) [Compound B385], the pest or weed control at 250 g/ha in assay [1] (setting [5]), in assay [1] (setting [6]), in assay [2] (setting [7]), in assay [2] (setting [8]), in assay [3] (setting [9]) and in assay [3] (setting [10]) was 100% throughout. In addition, the pest or weed control at 250 g/ha in assay [4] (setting [11]) and in assay [4] (setting [12]) was 100% each time.

For `Cc1cc(-c2ccc(F)cn2)cc(C)c1C1C(=O)CC(CC(=O)NCC2CC2)C1=O` (centres unmarked) [Compound B386], the pest or weed control at 250 g/ha is 90% in assay [1] (setting [5]); 100% in assay [1] (setting [6]); 100% in assay [2] (setting [7]); 100% in assay [2] (setting [8]); 100% in assay [3] (setting [9]); 100% in assay [3] (setting [10]). For the same compound, the pest or weed control at 250 g/ha in assay [4] (setting [11]) was found to be 40%; in assay [4] (setting [12]), 100%.

With `C#CCNC(=O)CC1CC(=O)C(c2c(C)cc(-c3ccc(F)cn3)cc2C)C1=O` (centres unmarked) [Compound B387], the pest or weed control at 250 g/ha in assay [1] (setting [5]) was determined as 90%; in assay [1] (setting [6]), 90%; in assay [2] (setting [7]), 100%; in assay [2] (setting [8]), 100%; in assay [3] (setting [9]), 90%; in assay [3] (setting [10]) it was 90%. In addition, the pest or weed control at 250 g/ha in assay [4] (setting [11]) was determined as 90%; in assay [4] (setting [12]), 100%.
